SMILES strings stand for the structures. Read-outs that look alike come from different tables or passages of the source.

Series [1] concerns scopolamine-induced inhibition of memory retention. Kind of series: Passive avoidance learning test, scopolamine-induced memory retention defect (Test Example 1). It counts as in vivo, mice. The note with it: 5 min after scopolamine 0.25 mg/kg i.p., remembrance test after 24 h. The protocol: A passive avoidance learning test using mice was conducted to examine whether scopolamine-induced inhibition of memory retention can be improved by the compound of the present invention.
A training box composed of a light room and a dark room having the same structure was used. The dark room is designed so that a foot shock is given to a test animal via a grid of the floor. An opening is provided on the partitioning wall of the two rooms to let animals in and out freely.
Scopolamine hydrobromide dissolved in physiological saline was intraperitoneally administered to a mouse at a dose of 0.25 mg/kg.
Five minutes after the scopolamine administration, a test compound was intraperitoneally administered to the mouse at a dose shown in Table 1 below (test group).
The animal was put in the light room. Immediately after the animal moved into the dark room, a foot shock was given until the animal returned to the light room.
After 24 hours from the training, the animal was again put in the light room, and the time required for the animal's moving to the dark room was measured up to 300 seconds.
The data from the remembrance test were analyzed to obtain a percent prolongation of the memory retention time of the test group based on that of the control group having received no test compound.

The target in series [2] is T1, 3H-Pirenzepine bonding to rat brain homogenate (Rattus norvegicus, UniProt P08482).
T1 construct: to obtain a rat brain homogenate for testing; from tissue; host or cells: brain without cerebellum, SD male rat (homogenate, 1000×g supernatant)
T1 sequence (P08482 1-460): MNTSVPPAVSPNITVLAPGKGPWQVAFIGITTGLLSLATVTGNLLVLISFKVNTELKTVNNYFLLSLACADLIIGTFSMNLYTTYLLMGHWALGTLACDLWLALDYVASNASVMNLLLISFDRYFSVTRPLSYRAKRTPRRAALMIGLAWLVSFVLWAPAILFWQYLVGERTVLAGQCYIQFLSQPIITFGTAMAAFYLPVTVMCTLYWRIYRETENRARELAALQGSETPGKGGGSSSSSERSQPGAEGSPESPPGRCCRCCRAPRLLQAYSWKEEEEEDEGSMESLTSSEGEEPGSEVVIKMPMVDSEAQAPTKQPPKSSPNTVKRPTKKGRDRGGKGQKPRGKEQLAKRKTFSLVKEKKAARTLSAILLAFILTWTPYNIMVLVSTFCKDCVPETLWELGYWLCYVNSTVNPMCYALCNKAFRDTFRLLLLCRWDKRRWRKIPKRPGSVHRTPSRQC
The series can be described thus: 3H-Pirenzepine bonding inhibition test, rat brain homogenate (Test Example 2). It counts as binding, SD male rat. The protocol: A rat brain homogenate was prepared according to the method of Yamamura and Synder (Proc. Nat. Acad. Sci. USA, Vol. 71, pp. 1725-1729 (1974)).
An SD male rat was sacrificed by decapitation, and the brain excised. After the cerebellum was removed, 0.32 M sucrose was added thereto in an amount 10 times the weight of the brain under ice cooling, followed by homogenizing in a Potter-Elvehjem glass homogenizer. The resulting homogenate was centrifuged at 1000×g for 10 minutes, the precipitate removed, and the supernatant further homogenized with a Polytron (manufactured by KINEMATICA) to obtain a rat brain homogenate for testing.
The method of Flynn and Mash (J. Pharm. Exp. Therm., Vol. 250, pp. 573-581 (1989)) was followed.
A mixture consisting of 0.035 ml of the above prepared rat brain homogenate (protein content: 0.6 mg), 1 ml of a 50 mM phosphoric acid buffer (pH 7.4) containing 2.0 nM ^3 H-pirenzepine, and 1 ml of a test compound dissolved in the same buffer was allowed to react at room temperature for 60 minutes. To the reaction mixture was added 3.0 ml of the same buffer as used above as cooled with ice, and the mixture was filtered through Whatman GF/B filter paper having been previously impregnated with a 0.1% polyethyleneimine solution for 60 minutes. The filter cake was washed twice with 3.0 ml of the same buffer, the filter paper taken out, an emulsion scintillator added, and the scintillation measured with a liquid scintillation counter to obtain a 50% inhibitory concentration (IC50) of the test compound on ^3 H-pirenzepine bonding to the rat brain homogenate.

For a further series, the system named is male mouse. Kind of series: Acute Toxicity Test (Test Example 3). It counts as in vivo. The note with it: 100 mg/kg i.p., 5-week-old male mouse. The protocol: The compound of Example 11, suspended in 5% gum arabic, was intraperitoneally achninistered to a 5-week-old […] male mouse. General manifestation of toxicity was observed over 60 minutes after the administration, and the animal's death was observed up to 24 hours from the administration.

The mark [3] stands for this setting: 2.0 nM 3H-pirenzepine, pH 7.4, room temperature, 60 min, read-out: IC50 (50% inhibitory concentration on 3H-pirenzepine bonding).

As for `CN(CC12CCCN1CCC2)c1ccc([N+](=O)[O-])c2ccccc12` [Example 15, 1[N-(1-Azabicyclo[3.3.0]octan-5-yl)methyl-N-methylamino]-4-nitronaphthalene], the “Percent Prolongation (of memory retention time vs control)” value (shortened to “Percent Prolongation”) came out at 111.6% in series [1] (dose 0.01 μg/kg i.p.), 68.8% in series [1] (dose 0.1 μg/kg i.p.) and 85.2% in series [1] (dose 1 μg/kg i.p.). Also, the IC50 in series [2] turned out to be 40 nM.
With `CN(CC12CCCN1CCC2)c1c([N+](=O)[O-])ccc2ccccc12` [Example 18, 1-[N-(1-Azabicyclo[3.3.0]octan-5-yl)methyl-N-methylamino]-2-nitronaphthalen], the “Percent Prolongation” value in series [1] (dose 0.01 μg/kg i.p.) is reported as 117.9%; in series [1] (dose 0.1 μg/kg i.p.), 115.9%. The IC50 in series [2] (setting [3]) is 440 nM.
With `Nc1c2c(nc3ccccc13)CCCC2` [THA, 1,2,3,4-tetrahydro-9-aminoacridine, reference compound], the “Percent Prolongation” value in series [1] (dose 100 μg/kg i.p.) came out at 24.4%; in series [1] (dose 1000 μg/kg i.p.), 74.8%.
For the molecule `O=[N+]([O-])c1c(NCC23CCCN2CCC3)cnc2ccccc12` [Example 6, 3-(1-Azabicyclo[3.3.0]octan-5-yl)methylamino-4-nitroquinoline], the “Percent Prolongation” value in series [1] (dose 1000 μg/kg i.p.) was found to be 55.1%. Also, the IC50 in series [2] (setting [3]) amounted to 1200 nM.
For the molecule `O=[N+]([O-])c1cccc2c(NCC34CCCN3CCC4)cccc12` [Example 17, 1-(1-Azabicyclo[3.3.0]octan-5-yl)methylamino-5-nitronaphthalene], the IC50 in series [2] amounted to 800 nM.
`O=[N+]([O-])c1c2ccccc2c(NCC23CCCN2CCC3)c2ccccc12` [Example 19, 9-(1-Azabicyclo[3.3.0]octan-5-yl)methylamino-10-nitroanthracene]: the IC50 in series [2] (setting [3]) was 1400 nM.
Still for that read-out and setting: the value for `CC(C)N(CCNc1ccc([N+](=O)[O-])c2ccccc12)C(C)C` [Example 14, 1-(2-Diisopropylaminoethyl)amino-4-nitronaphthalene] was 900 nM.
For `O=[N+]([O-])c1ccc(NCC23CCCN2CCC3)c2ccccc12` [Example 11, 1-(1-Azabicyclo[3.3.0]octan-5-yl)methylamino-4-nitronaphthalene], the “Percent Prolongation” value in series [1] (dose 1 μg/kg i.p.) amounted to 30.9%; in series [1] (dose 10 μg/kg i.p.) it was 91.7%; in series [1] (dose 100 μg/kg i.p.), 120.9%; in series [1] (dose 1000 μg/kg i.p.) it was 152.6%. The same molecule showed an IC50 in series [2] of 900 nM. For the same molecule, in the series on male mouse (observed over 60 minutes), the “general manifestation of toxicity” value is listed as “neither general manifestation of toxicity nor death was observed”. In addition, the death result in the series with male mouse (observed up to 24 hours) was “neither general manifestation of toxicity nor death was observed”.
As for `O=[N+]([O-])c1ccc(NCC23CCCN2CCC3)cc1` [Example 10, 1-(1-Azabicyclo[3.3.0]octan-5-yl)methylamino-4-nitrobenzene], in series [1] (dose 1000 μg/kg i.p.), the “Percent Prolongation” value was 26.5%.

These data come from US5434165A, “Nootropic agents, compositions of, and method of use thereof” (Sanawa Kagaku Kenkyusho Company, Ltd., priority 1991, dated 1995).
